Results published in patent US11976083B2, “Inhibitors of peptidylarginine deiminases” (Gilead Sciences, Inc., priority 2020, dated 2024).

Target: T1, human PAD4 (Homo sapiens, UniProt Q9UM07)
T1 construct: human PAD4 (NM_012387), A2-P663, was PCR amplified; His-SUMO (N, cleaved yes); made in house; host or cells: E. coli BL21(DE3)
Experiment: In vitro PAD4 BAEE biochemical assay
Details: BAEE substrate 3 mM, 5 nM PAD4, 2 mM calcium chloride; geometric mean of multiple experiments
Procedure, shortened: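 Recombinant human PAD4 (5 nM final) with 2 mM CaCl2 was preincubated with compound 30 min at 25 °C in MOPS buffer pH 7.6, then reacted with 3 mM BAEE for 2 h at 25 °C. After EDTA stop, released ammonia was detected by o-phthalaldehyde/DTT fluorescence (ex 405/em 535 nm); IC50 from four-parameter fit, geometric mean.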

T1 sequence (Q9UM07 2-663): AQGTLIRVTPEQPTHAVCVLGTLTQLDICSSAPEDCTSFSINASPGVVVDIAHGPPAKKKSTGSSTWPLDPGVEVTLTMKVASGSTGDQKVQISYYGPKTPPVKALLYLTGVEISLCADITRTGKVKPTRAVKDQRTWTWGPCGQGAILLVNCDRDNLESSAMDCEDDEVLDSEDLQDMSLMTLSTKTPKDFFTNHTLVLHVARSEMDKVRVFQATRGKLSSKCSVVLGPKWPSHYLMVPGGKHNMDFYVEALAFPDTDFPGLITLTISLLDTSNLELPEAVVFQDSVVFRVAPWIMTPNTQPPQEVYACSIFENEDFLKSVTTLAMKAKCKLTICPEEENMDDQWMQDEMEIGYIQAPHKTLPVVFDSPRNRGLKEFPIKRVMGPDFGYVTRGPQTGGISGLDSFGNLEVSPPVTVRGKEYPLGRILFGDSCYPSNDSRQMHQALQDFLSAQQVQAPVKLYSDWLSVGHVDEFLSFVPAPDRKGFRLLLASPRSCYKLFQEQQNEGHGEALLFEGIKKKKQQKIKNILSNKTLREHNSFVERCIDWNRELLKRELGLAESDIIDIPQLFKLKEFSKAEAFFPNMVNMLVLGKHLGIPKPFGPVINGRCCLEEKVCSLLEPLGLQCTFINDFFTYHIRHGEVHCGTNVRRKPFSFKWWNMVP

IC50 [nM]	SMILES
64	COc1cc(C(=O)N2C[C@H](N)[C@@H]3CC[C@H]2C3)cc2nc(-c3cc4ccc5nc4n3CCCCCC[C@@](F)(c3ccccn3)C(=O)N[C@@H]5C)n(C3CC3)c12 (single isomer, unassigned) [Example 944, (8˜{R},11˜{R})-17-[5-[(1˜{S},4˜{R},5˜{R})-4-amino-2-azabicyclo[3.2.1]octane-2-carbonyl]-1-cyclopropyl-7-methoxy-benzimidazol-2-yl]-8-fluoro-11-methyl-8-(2-pyridyl)-1,10,19-triazatricyclo[10.5.2.0^{15,18}]nonadeca-12(19),13,15(18),16-tetraen-9-one]
239	COc1cc(C(=O)N2CC[C@@H]3CCN[C@@H]3C2)cc2nc(-c3cc4ccc5nc4n3CCCCC[C@@H]3C[C@H]3C(=O)N[C@@H]5C)n(C)c12 [Example 532, (2~{R},5~{R},7~{R})-14-[5-[(3~{a}~{S}, 7~{a}~{S})-1,2,3,3~ {a},4,5,7,7~{a}-octahydropyrrolo[2,3-c]pyridine-6-carbonyl]-7-methoxy-1-methyl-benzimidazol-2-yl]-2-methyl-3,13,19-triazatetracyclo[11.5.2.0^ {5,7}.0^{16,20}]icosa-1 (19),14,16(20),17-tetraen-4-one]
70	COc1cc(C(=O)N2CCC[C@@H](N)C2)cc2nc(-c3cc4ccc5nc4n3CCCCCC[C@@H](C)C(=O)N[C@@H]5C)n(C)c12 [Example 110, (8~{R},11~{R})-17-[5-[(3~{R})-3-aminopiperidine-1-carbonyl]-7-methoxy-1-methyl-benzimidazol-2-yl]-8,11-dimethyl-1,10,19-triazatricyclo[10.5.2.0^{15,18}]nonadeca-12(19),13,15(18),16-tetraen-9-one]
129	COc1cc(C(=O)N2CC[C@@H](OC(F)F)[C@@H](N)C2)cc2nc(-c3cc4ccc5nc4n3CCCCCCC(C)(C)C(=O)N[C@@H]5C)n(C)c12 [Example 297, (11~{R})-17-[5-[(3~{S},4~{R})-3-amino-4-(difluoromethoxy)piperidine-1-carbonyl]-7-methoxy-1-methyl-benzimidazol-2-yl]-8,8,11-trimethyl-1,10,19-triazatricyclo[10.5.2.0^{15,18}]nonadeca-12(19),13,15(18),16-tetraen-9-one]
136	COc1cc(C(=O)N2CC[C@@H](OC(F)F)[C@@H](N)C2)cc2nc(-c3cc4ccc5nc4n3CCCCCC[C@](C)(C(F)(F)F)C(=O)N[C@@H]5C)n(C)c12 [Example 725, (8~{S},11~{R})-17-[5-[(3~ {S},4~{R})-3-amino-4-(difluoromethoxy)piperidine-1-carbonyl]-7-methoxy-1-methyl-benzimidazol-2-yl]-8,11-dimethyl-8-(trifluoromethyl)-1,10,19-triazatricyclo[10.5.2.0^ {15,18}]nonadeca-12(19),13,15(18),16-tetraen-9-one]
97	COc1cc(C(=O)N2CCC[C@@H](N)C2)cc2nc(-c3cc4ccc5nc4n3CC(C)(C)CCCCCC(=O)N[C@@H]5C)n(C)c12 [Example 140, (11~{R})-17-[5-[(3~{R})-3-aminopiperidine-1-carbonyl]-7-methoxy-1-methyl-benzimidazol-2-yl]-3,3,11-trimethyl-1,10,19-triazatricyclo[10.5.2.0^{15,18}]nonadeca-12(19),13,15(18),16-tetraen-9-one]
31	COc1cc(C(=O)N2[C@H]3CC[C@@H]2[C@H](N)C3)cc2nc(-c3cc4ccc5nc4n3CCCCCCCCC(=O)N5C)c(C)n12 [Example 127, 17-[7-[(1˜{R},2˜{R},4˜{S})-2-amino-7-azabicyclo[2.2.1]heptane-7-carbonyl]-5-methoxy-3-methyl-imidazo[1,2-a]pyridin-2-yl]-11-methyl-1,11,19-triazatricyclo[10.5.2.0^{15,18}]nonadeca-12(19),13,15(18),16-tetraen-10-one]
48	CO[C@@H]1CCN(C(=O)c2cc(F)c3c(c2)nc(-c2cc4ccc5nc4n2CC(F)(F)CCC[C@@H]2C[C@H]2C(=O)N[C@@H]5C)n3C)C[C@@H]1N [Example 738, (2~{R},5~{R},7~{R})-14-[5-[(3~{S},4~{R})-3-amino-4-methoxy-piperidine-1-carbonyl]-7-fluoro-1-methyl-benzimidazol-2-yl]-11,11-difluoro-2-methyl-3,13,19-triazatetracyclo[11.5.2.0^ {5,7}.0^{16,20}] icosa-1(19),14,16(20), 17-tetraen-4-one]
86	COc1cc(C(=O)N[C@H]2CNCC[C@@H]2F)cc2nc(-c3cc4ccc5nc4n3CCC/C=C/c3c(noc3C)C(=O)N[C@@H]5C)n(C)c12 [Example 399, 2-[(2~{R},10~{E})-2,8-dimethyl-4-oxo-7-oxa-3,6,15,21-tetrazatetracyclo[13.5.2.0^{5,9}.0^{18,22}]docosa-1(21),5,8,10,16,18(22),19-heptaen-16-yl]-~{N}-[(3~{S},4~{S})-4-fluoro-3-piperidyl]-7-methoxy-1-methyl-benzimidazole-5-carboxamide]
52	COc1cc(C(=O)N2C[C@H](N)[C@@H]3CC[C@H]2C3)cc2nc(-c3cc4ccc5nc4n3CCCCCOC(C)(C)C(=O)N[C@@H]5C)n(C)c12 [Example 909, (11~{R})-17-[5-[(1~{S},4~{R), 5~{R})-4-amino-2-azabicyclo [3.2.1]octane-2-carbonyl]-7-methoxy-1-methyl-benzimidazol-2-yl]-8,8,11-trimethyl-7-oxa-1,10,19-triazatricyclo[10.5.2.0^{15,18}] nonadeca-12(19), 13,15(18),16-tetraen-9-one]
18	COc1cc(C(=O)N2C[C@H](N)[C@@H]3CC[C@H]2C3)cc2nc(-c3cc4ccc5nc4n3CCCCCC[C@](F)(c3ccccn3)C(=O)N[C@@H]5C)n(C)c12 [Example 883, (8~{S},11~{R})-17-[5-[(1~{S},4~{R},5~{R})-4-amino-2-azabicyclo[3.2.1]octane-2-carbonyl]-7-methoxy-1-methyl-benzimidazol-2-yl]-8-fluoro-11-methyl-8-(2-pyridyl)-1,10,19-triazatricyclo[10.5.2.0^ {15,18}]nonadeca-12(19), 13,15(18),16-tetraen-9-one]
737	COc1cc(C(=O)N[C@@H]2CNC[C@H]3C[C@H]32)cc2nc(-c3cc4ccc5nc4n3CCCCCCC(C)(C)C(=O)N[C@@H]5C)n(C)c12 [Example 201, ~{N}-[(1~{S),5~{S},6~{R})-3-azabicyclo[4.1.0]heptan-5-yl]-7-methoxy-1-methyl-2-[(11~{R})-8,8,11-trimethyl-9-oxo-1,10,19-triazatricyclo[10.5.2.0^{15,18}]nonadeca-12(19),13,15(18),16-tetraen-17-yl]benzimidazole-5-carboxamide]
121	COc1cc(C(=O)N2CC[C@@H](OC)[C@@H](N)C2)cc2nc(-c3cc4ccc5nc4n3CCCCCCC(F)(F)C(=O)N[C@@H]5C)n(C)c12 [Example 374, (11~{R})-17-[5-[(3~{S},4~{R})-3-amino-4-methoxy-piperidine-1-carbonyl]-7-methoxy-1-methyl-benzimidazol-2-yl]-8,8-difluoro-11-methyl-1,10,19-triazatricyclo[10.5.2.0^{15,18}]nonadeca-12(19),13,15(18),16-tetraen-9-one]
